Data: US7781580B2, “Stilbene derivatives as new cancer therapeutic agents” (Virginia Commonwealth University, priority 2007, dated 2010)
Structures can show the parent of a compound that is named as a salt.

How the values were obtained:
[1] = system: UCI101 ovarian cancer cells; experiment: Alamar Blue cell growth inhibition, UCI101; assay type: cell-based; settings: for relative potency / activity: UCI101, 48 hours
Experimental: Cell growth was measured by AlamarBlue™ staining and the percentage of cell growth inhibition was calculated and compared with the control cells that were treated with 0.1% DMSO, the vehicles for the stilbene compounds.
Cells were treated with the tested drug for 2 days before analysis of cell growth by Alamar Blue™ staining. Cells treated with 0.1% DMSO were used as control and set as 100%.
(§1) (a) In vitro sensitivity of UCI101 cells toward three potential stilbene prodrugs, 5a-c, was tested in 96-well plates using Alamar Blue™ assays to determine cell growth inhibition. […] (b) 5b induces cell cycle change and apoptosis in UCI101 cells. Cells were incubated with 5b at 1, 3, 10 μM for 16 hours followed by PI staining and flow cytometry analysis. A subG0/1 population, representing apoptotic cells, appeared along with a decrease of the G1/G2 ratio after cells were treated with 3 μM 5b. Higher concentration (10 μM) of 5b completely killed cells, as was the case with stilbene 4a at […]. (c) Cells treated with stilbene 4a and 5b were stained with phospho-histone 3B, a mitotic marker. The positive signals of phospho-histone 3B were shown in green and nuclei were stained with DAPI in blue. […] (d) In vivo efficacy of 5b compared with stilbene 4a. Nude mice were injected with UCI101 ovarian cancer cells and treated with 7 doses of 5b,c or stilbene 4a every 2-3 days. Tumor volume was calculated and plotted against days.
(§2) Various cancer cell lines were grown in 96-well plates for drug sensitivity assays. Once cells achieved 50% confluence, the incubation media was changed to the same cell growth media with different concentrations of the tested compounds or vehicle alone. Cells were then incubated for 48 hours before the cell growth inhibition study. To determine the degree of cell growth inhibition, 1/10 volume of Alamar Blue™ solution was added to each well and optical density (OD) at 570 and 600 nm was determined. The percentage of growth inhibition was calculated according to the manufacturer's formula as follows: The percentage of growth is [(117216×A570)−(80586×A600)]/[(117216×A^o570)−(80586×A^o600)]×100. In this formula, A570 is the absorbance of the treated samples at 570 nm; A600 is the absorbance of the treated samples at 600 nm; A^o570 is the absorbance of the […] samples at 570 nm; and A^o600 is the absorbance of the untreated samples at 600 nm. The two constants, 117216 and 80586, are the extinction coefficients of Alamar Blue™ at 570 and 600 nm respectively. Each concentration was repeated in triplicate to minimize the error.
(§3) We first tested the cytotoxic effect of various stilbene derivatives for their in vitro efficacy of suppressing tumor cell proliferation. Cells were first plated in 96-well plates at 50% confluence and treated with 0, 0.01, 0.03, 0.1, 0.3, 1.0, 3.0, 10 μM concentrations of stilbene derivatives for 48 hours in triplicate. Alamar Blue™ reagent was added into each well at 1/10 volume and incubated for 2 hours before quantification of the absorbance at 570 and 600 nm.

[2] = system: SKOV3 ovarian cancer cells; experiment: Alamar Blue cell growth inhibition, SKOV3; assay type: cell-based
Experimental: Cells were incubated with various concentrations of the compounds for 48 hours. Cell growth was measured by Alamar Blue™ staining and the percentage of cell growth inhibition was calculated and compared with the control cells that were treated with 0.1% DMSO, the vehicle for the stilbene compounds.
as §2

[3] = system: SNU423 hepatocellular carcinoma cells; experiment: Alamar Blue cell growth inhibition, SNU423; assay type: cell-based
Experimental: Cell growth was measured by Alamar Blue™ staining and the OD absorbance at 570 and 600 nm was determined by a microplate reader. The percentage of cell growth inhibition was calculated and compared with the control cells that were treated with 0.1% DMSO, the vehicle for the stilbene compounds.
as §2, §3

[4] = system: UCI101 ovarian cancer cells (xenograft); experiment: UCI101 xenograft in nude mice; assay type: in vivo
Experimental: as §1
We next tested whether 5b could be converted into stilbene 4a in circulation. […] Blood was collected at 20, 60 and 240 min after injection for spot check of stilbene 4a level in serum. […] The in vivo efficacy of 5b and 5c was compared to stilbene 4a in a pilot study using 5 mice in each group.

[5] = system: HL60 leukemic cells (xenograft); experiment: HL60 xenograft model in SCID mice; assay type: in vivo; settings: 5 mg/kg/day for 4 days
Experimental: FIG. 20. Effect of stilbene 4a in vivo. (a) Induction of cell death in vivo by stilbene 4a. Tumor was harvested at 24 hours after treatment for TUNEL assay. (b) Histological sections of tumor. Tumor harvested at 24 hours after injection of stilbene 4a was analyzed by H & E staining. The area with lighter color is the necrotic region. (c) Tumor growth suppression. SCID mice were injected subcutaneously with 5×10^6 HL60 cells at each flank. Once the diameter of tumor reached 5 mm in diameter in majority of mice, mice were treated with 5 daily injection of stilbene 4a. Tumor volume was calculated by the long and short axis of tumor and plotted against days. Each group contains 5 mice.
HL60 leukemic cells were injected subcutaneously into ICR-scid mice (Taconic Inc.) on flank. After tumor becomes visible after 12 days, Mice will be treated with stilbene 4a by intravenous injection after dissolved in 10% DMSO in normal saline. For acute effect study, mice were sacrificed 24 hours after injection and tumor and bone marrow were harvested for histological staining and flow cytometry analysis. For long term effect study, stilbenes were injected intravenously from tail veins at 2 or 10 mg/kg for 5 consecutive days. Negative control mice were treated with 10% DMSO in normal saline and positive control mice were treated with Ara-C at 5 mg/kg. Tumor volume was measured twice a week for 4 weeks by the long and short axes of tumor. Volume was calculated by the formula ab^2/2, in which “a” represents the long axis and “b” the short axis of tumor. Mice were euthanized if the calculated tumor reached 10% of the body weight.

Tubulin (>99% pure) = experiment: tubulin polymerization assay (OD 340 nm); assay type: biochemical; settings: OD340 nm; nocodazole and paclitaxel 10 μM
Experimental: FIG. 3a-d. Stilbenes inhibit tubulin polymerization. (a) Effect of stilbene 4a. Pure tubulin was incubated with various concentrations of stilbene 4a, 10 μM nocodazole, and 10 μM paclitaxel in the polymerization buffer. The OD at 340 nm was monitored every minute by SpectraMAX 250 and plotted against time. (b) Effect of stilbene 4c. (c) Comparison of same concentrations of stilbenes 4a, 4a trans, 4c and 4c trans with control. […] Tubulin was incubated with [^3H]-colchicine and various concentrations of different stilbenes for 20 min. Tubulin was then separated from the unbound [^3H]-colchicine by Microcon-30 and washed three times with PBS. The radioactivity of the tubulin was counted. […] All experiments were done in triplicates.
The tubulin polymerization assay kit was purchased from Cytoskeleton (Denver, Colo.). Tubulin (>99% pure) was mixed with general tubulin buffer (GTB, 80 mM PIPES pH 6.9, 2 mM MgCl2, 0.5 mM EGTA, and 1 mM GTP) in a 96-well plate at 37° C. Absorbance at 340 nm was measured every 1 min for 60 min by SpectraMAX 250 (Molecular Devices, Sunnyville, Calif.). Analysis of the results was performed by SoftMAX Pro version 1.2.0 from the same company.

Question: For `CCOc1cc(/C=C/c2ccc(OC)c(N)c2)cc(OC)c1.Cl`, which melting point is on record?
Answer: The melting point was 147 to 149 °C.

Question: For `COc1cc(/C=C\c2ccc(OC)c(N)c2)cc(OC(C)C)c1.Cl`, which melting point is on record?
Answer: The melting point was 120 to 122 °C.

Question: Which melting point does the source give for `COc1cc(/C=C/c2ccc(OC)c(N)c2)cc(OC(C)C)c1.Cl` here?
Answer: The melting point was 134 to 136 °C.

Question: Which melting point does the source give for `C=CCOc1cc(/C=C/c2ccc(OC)c(N)c2)cc(OC)c1.Cl` here?
Answer: The melting point was 137 to 140 °C.

Question: For `COc1cc(/C=C\c2ccc(OC)c(N)c2)cc(OCCO)c1` (as salt: hydrochloride) [10a, (Z)-2-{3-[2-(3-Amino-4-methoxy-phenyl)-vinyl]-5-methoxy-phenoxy}-ethanol, hydrochloride], which melting point is on record?
Answer: The melting point was 157 to 159 °C.

Question: For `COc1cc(/C=C\c2ccc(OC)c(CN3C(=O)c4ccccc4C3=O)c2)cc(OC)c1` [3e, (Z)-2-{5-[2-(3,5-Dimethoxy-phenyl)-vinyl]-2-methoxy-benzyl}-isoindole-1,3-dione], which “effective concentration, cell growth suppression” value ([1]; UCI101) is on record?
Answer: Its value is greater than 3 µM.

Question: With `COc1cc(/C=C\c2ccc(OC)c(C(=O)O)c2)cc(OC)c1` [4d, (Z)-5-[2-(3,5-Dimethoxy-phenyl)-vinyl]-2-methoxybenzoic acid.] as the compound, how does the “activity” value ([2]; SKOV3) read?
Answer: The value was “not active”.

Question: What about the “effective concentration, blocking cell proliferation” value ([3]; SNU423, 48 hours) of the same compound?
Answer: Its value is greater than 10 µM.

Question: Which “relative potency / activity” value [1] does the source give for `COc1cc(/C=C\c2ccc(OC)c(NC(=O)NCCN3CCOCC3)c2)cc(OC)c1` [5a, (Z)1-{5-[2-(3,5-Dimethoxy-phenyl)-vinyl]-2-methoxy-phenyl}-3-(2-morpholin-4-yl-ethyl)-urea, hydrochloride] here?
Answer: The value was “showed no activity”.

Question: For `COc1cc(/C=C\c2ccc(OC)c(NC(=O)OCCOCCOCCO)c2)cc(OC)c1` [5c, (Z)-{5-[2-(3,5-Dimethoxy-phenyl)-vinyl]-2-methoxy-phenyl}-carbamic acid-2-[2-(2-hydroxy-ethoxy)-ethoxy]-ethyl ester], which “tumor growth versus control mice” value ([4]; 7 doses every 2-3 days) is on record?
Answer: The value was “tumor growth rate the same as that of control mice”.

Question: And the mouse weight ([4]; mouse, in vivo)?
Answer: Its mouse weight is “did not show any significant change”.

Question: And the “relative potency / activity” value [1]?
Answer: The value was “showed no activity”.

Question: Which “relative potency / activity” value [1] does the source give for `CCOc1cc(/C=C\c2ccc(OC)c(N)c2)cc(OC)c1.Cl` [10b, (Z)-5-[2-(3-Ethoxy-5-methoxy-phenyl)-vinyl]-2-methoxy-phenylamine, hydrochloride] here?
Answer: Its value is “active but less effective than stilbene 4a”.

Question: And the melting point?
Answer: Its melting point is 127 to 131 °C.

Question: For `C=CCOc1cc(/C=C\c2ccc(OC)c(N)c2)cc(OC)c1.Cl` [10e, (Z)-5-[2-(3-Allyloxy-5-methoxy-phenyl)-vinyl]-2-methoxy-phenylamine, hydrochloride], which “relative potency / activity” value [1] is on record?
Answer: Its value is “active but less effective than stilbene 4a”.

Question: And the melting point?
Answer: Its melting point is 122 to 125 °C.

Question: For `COc1cc(/C=C\c2ccc(OC)c(N)c2)cc(OCC(=O)O)c1` [10f, (Z)-{3-[2-(3-Amino-4-methoxy-phenyl)-vinyl]-5-methoxy-phenoxy}-acetic acid], which “relative potency / activity” value [1] is on record?
Answer: Its value is “not active”.

Question: For `COc1cc(/C=C\c2ccc3ccn(C)c3c2)cc(OC)c1` [13b, (Z)-6-[2-(3,5-Dimethoxy-phenyl)-vinyl]-1-methyl-1H-indole], which “relative potency / activity” value [1] is on record?
Answer: Its value is “less potent than stilbene 4a by one log”.

Question: Which results are given for `COc1ccc(/C=C\c2ccc3[nH]ccc3c2)cc1N.O=C(O)C(=O)O` [14a, (Z)-5-[2-(1H-Indol-5-yl)-vinyl]-2-methoxy-phenylamine, oxalate salt]?
Answer: relative potency / activity [1]: not active; melting point: 112 to 115 °C

Question: For `COc1ccc(/C=C\c2ccc3c(ccn3C)c2)cc1N` [14b, (Z)-2-Methoxy-5-[2-(1-methyl-1H-indol-5-yl)-vinyl]-phenylamine], which “relative potency / activity” value [1] is on record?
Answer: Its value is “less potent than stilbene 4a by one log”.

Question: With `Nc1ccn([C@@H]2O[C@H](CO)[C@@H](O)[C@@H]2O)c(=O)n1` [Ara-C, reference compound] as the compound, how does the adverse effect [5] read?
Answer: The adverse effect was “Ara-C-induced conjunctivitis”.

Question: For `COc1cc2c(c(OC)c1OC)-c1ccc(OC)c(=O)cc1[C@@H](NC(C)=O)CC2` [colchicine, reference compound], which “effective / active concentration” value ([2]; SKOV3, 48 hours) is on record?
Answer: Its value is 0.1 µM.

Question: For `COc1cccc2c1C(=O)c1c(O)c3c(c(O)c1C2=O)C[C@@](O)(C(=O)CO)C[C@@H]3O[C@H]1C[C@H](N)[C@H](O)[C@H](C)O1` [doxorubicin, reference compound], which “relative potency” value ([3]; SNU423) is on record?
Answer: The value was “potency similar to that of 10a”.

Question: For `COC(=O)Nc1nc2ccc(C(=O)c3cccs3)cc2[nH]1` [nocodazole, reference compound], which “effect on tubulin polymerization” value (Tubulin (>99% pure)) is on record?
Answer: The value was “suppressed”.
